Data as given in ChEMBL document CHEMBL1201862, “PubChem BioAssay data set” (2004).
Active and inactive are the calls of the source.

Columns and labels:
[1] = molecular target: DNA dC->dU-editing enzyme APOBEC-3G (Homo sapiens, UniProt Q9HC16); assay type: functional;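 also: Dose-response counterscreen measuring inhibition of APOBEC3G DNA deaminase activity, run while confirming APOBEC3A inhibitors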
[2] = molecular target: DNA dC->dU-editing enzyme APOBEC-3A (Homo sapiens, UniProt P31941); experiment: Dose Response confirmation of small molecule APOBEC3A DNA Deaminase Inhibitors via a fluorescence-based single-stranded DNA deaminase assay. [Related pubchem assays (depositor defined):AID493011, AID493024]; assay type: functional
[3] = molecular target: T1, Short transient receptor potential channel 4 (Mus musculus, UniProt Q9QUQ5); experiment: mouse TRPC4 channel inhibitors, dose response, cell-based, HEK293 TRPC4/mu-opioid, Fluo-4 calcium (AID 434942); assay type: functional;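 also: potency of inhibitors blocking the TRPC4 calcium response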
T1 sequence (Q9QUQ5 whole entry): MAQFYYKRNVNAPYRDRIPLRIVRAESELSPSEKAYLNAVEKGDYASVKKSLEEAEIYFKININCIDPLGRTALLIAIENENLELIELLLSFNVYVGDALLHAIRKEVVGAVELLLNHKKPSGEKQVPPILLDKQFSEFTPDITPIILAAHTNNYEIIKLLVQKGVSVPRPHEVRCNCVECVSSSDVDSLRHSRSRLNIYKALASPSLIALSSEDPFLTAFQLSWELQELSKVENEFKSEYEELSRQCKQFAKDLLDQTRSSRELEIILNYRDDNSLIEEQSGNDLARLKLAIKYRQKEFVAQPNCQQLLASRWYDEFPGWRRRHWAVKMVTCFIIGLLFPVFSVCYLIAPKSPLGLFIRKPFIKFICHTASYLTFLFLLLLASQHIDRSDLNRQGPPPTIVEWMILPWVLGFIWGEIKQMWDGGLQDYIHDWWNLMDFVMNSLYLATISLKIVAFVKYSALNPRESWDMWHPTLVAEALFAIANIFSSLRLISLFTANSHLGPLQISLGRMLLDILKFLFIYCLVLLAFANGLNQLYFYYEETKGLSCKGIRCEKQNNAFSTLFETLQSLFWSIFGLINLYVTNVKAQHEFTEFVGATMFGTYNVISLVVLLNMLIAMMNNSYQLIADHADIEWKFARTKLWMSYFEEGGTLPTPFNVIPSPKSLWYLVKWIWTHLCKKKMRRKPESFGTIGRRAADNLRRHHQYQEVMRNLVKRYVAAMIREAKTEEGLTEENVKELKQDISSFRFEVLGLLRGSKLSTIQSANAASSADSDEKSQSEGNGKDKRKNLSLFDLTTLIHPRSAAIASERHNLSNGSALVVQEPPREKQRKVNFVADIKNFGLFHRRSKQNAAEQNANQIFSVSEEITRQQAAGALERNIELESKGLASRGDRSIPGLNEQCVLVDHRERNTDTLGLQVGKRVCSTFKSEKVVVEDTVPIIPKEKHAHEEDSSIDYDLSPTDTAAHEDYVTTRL

[4] = molecular target: Cytochrome P450 2C9 (Homo sapiens, UniProt P11712)
[5] = cytotoxicity toward NIH3T3 fibroblasts, dose response, counter-screen, cell-based, ATP luminescence, mouse fibroblasts (AID 2010); assay type: functional;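 also: cells exposed to compound for about 90 hours before reading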
[6] = Luminescence Cell-Based Dose Retest to Confirm Inhibitors of Cancer Stem Cells. [Related pubchem assays (depositor defined):AID2717, AID2721]; assay type: functional; conditions: Homo sapiens
[7] = inhibitors of intracellular T. cruzi replication, confirmation, NIH3T3 host cells, beta-gal luminescence (AID 2044); assay type: functional, cell-based;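 also: intracellular parasites grown in NIH/3T3 mouse fibroblasts as host cells; luminescent beta-galactosidase reporter signal from transgenic T. cruzi replicating inside host cells; inhibitors lower the luminescence signal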
[8] = cytotoxicity in HEK-293T cells, dose response, cytotoxicity control for TCR NF-kB inhibitor project, luminescence, T-cell screen hits (AID 489026); assay type: functional, cell-based;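 also: cells exposed to compound about 14 hours before the viability readout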
[9] = molecular target: Nonstructural protein 1 (Influenza A virus, UniProt Q194T2); assay type: functional, Influenza A virus (A/California/07/2009(H1N1))
[10] = molecular target: Dual specificity tyrosine-phosphorylation-regulated kinase 1A (Rattus norvegicus, UniProt Q63470); assay type: biochemical, Homo sapiens
[11] = molecular target: T2, Protein skinhead-1 (Caenorhabditis elegans, UniProt P34707); assay type: functional
T2 sequence (P34707 whole entry): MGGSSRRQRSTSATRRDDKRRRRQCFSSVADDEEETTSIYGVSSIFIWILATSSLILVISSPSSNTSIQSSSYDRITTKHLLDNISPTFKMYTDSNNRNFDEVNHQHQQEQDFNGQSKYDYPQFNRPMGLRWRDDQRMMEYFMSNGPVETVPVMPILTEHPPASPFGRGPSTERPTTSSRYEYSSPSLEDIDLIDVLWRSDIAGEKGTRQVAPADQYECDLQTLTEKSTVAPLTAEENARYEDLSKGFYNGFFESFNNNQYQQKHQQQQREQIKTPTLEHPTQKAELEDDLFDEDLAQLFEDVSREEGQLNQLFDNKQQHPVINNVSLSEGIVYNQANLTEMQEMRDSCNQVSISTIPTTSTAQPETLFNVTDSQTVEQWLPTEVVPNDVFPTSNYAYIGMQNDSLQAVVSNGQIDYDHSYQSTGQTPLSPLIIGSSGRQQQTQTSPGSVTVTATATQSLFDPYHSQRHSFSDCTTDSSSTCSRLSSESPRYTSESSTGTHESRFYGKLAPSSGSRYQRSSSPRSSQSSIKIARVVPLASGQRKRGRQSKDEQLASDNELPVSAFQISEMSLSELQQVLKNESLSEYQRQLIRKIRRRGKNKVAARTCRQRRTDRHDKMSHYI

[12] = molecular target: T3, Carboxy-terminal domain RNA polymerase II polypeptide A small phosphatase 1 (Homo sapiens, UniProt Q9GZU7); experiment: inhibitors of CTDSP1, concentration-response testing, biochemical assay, absorbance-based, actives from ultra-high-throughput screening (AID 540297); assay type: functional
T3 sequence (Q9GZU7 whole entry): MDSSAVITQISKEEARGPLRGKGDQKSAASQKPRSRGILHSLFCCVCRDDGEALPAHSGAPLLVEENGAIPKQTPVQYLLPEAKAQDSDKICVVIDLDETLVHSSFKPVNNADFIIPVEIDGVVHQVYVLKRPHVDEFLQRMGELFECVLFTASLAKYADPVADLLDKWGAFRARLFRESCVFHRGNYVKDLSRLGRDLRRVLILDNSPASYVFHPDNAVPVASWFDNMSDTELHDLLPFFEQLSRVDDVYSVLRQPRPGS

[13] = control 3'UTR Renilla luciferase suppression, dose response, counter-screen for Shn3 inhibitor project, cell-based, Clone20-Shn3RL, cherry-picked (AID 624133); assay type: functional
[14] = Shn3 3'UTR reporter inhibitors, dose response, cell-based, Clone20 osteoblasts, firefly luciferase, cherry-picked (AID 624132); assay type: functional;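 also: firefly luciferase luminescence from reporter carrying the Shn3 3'UTR in osteoblasts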
[15] = molecular target: Heat shock protein HSP 90-alpha (Homo sapiens, UniProt P07900); assay type: functional, organism-based
[16] = C. albicans growth with fluconazole, confirmation, fluorescence, retest (AID 2467); assay type: functional, cell-based
[17] = molecular target: T4, Microphthalmia-associated transcription factor (Homo sapiens, UniProt O75030); experiment: TRPM1 promoter luciferase signal decrease, dose response, MITF inhibitor project, cell-based, SK-MEL-5, cherry-picked, set 3 (AID 493073); assay type: functional
T4 sequence (O75030 whole entry): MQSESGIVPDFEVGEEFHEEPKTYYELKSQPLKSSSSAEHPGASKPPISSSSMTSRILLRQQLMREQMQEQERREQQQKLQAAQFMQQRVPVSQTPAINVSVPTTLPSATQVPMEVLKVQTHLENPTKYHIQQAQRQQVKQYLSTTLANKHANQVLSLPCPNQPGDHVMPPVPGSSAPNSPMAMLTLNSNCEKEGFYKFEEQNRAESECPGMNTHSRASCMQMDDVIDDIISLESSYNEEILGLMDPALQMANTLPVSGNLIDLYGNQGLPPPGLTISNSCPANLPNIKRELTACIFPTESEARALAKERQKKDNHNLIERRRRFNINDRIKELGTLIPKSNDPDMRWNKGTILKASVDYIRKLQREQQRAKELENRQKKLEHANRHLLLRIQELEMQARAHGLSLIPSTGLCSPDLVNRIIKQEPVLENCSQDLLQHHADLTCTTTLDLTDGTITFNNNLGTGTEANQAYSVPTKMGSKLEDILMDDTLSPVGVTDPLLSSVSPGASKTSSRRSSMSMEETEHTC

[18] = test system: INS1; experiment: beta cell apoptosis inhibitors, cytokine rescue, dose response, luminescence, retest (AID 449756); assay type: functional, cell-based; conditions: Rattus norvegicus;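 also: cell death triggered by IL-1 beta plus TNF-alpha plus IFN-gamma mixture; protective hits raise ATP signal compared with cytokine alone wells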
[19] = NIH-3T3 fibroblast cytotoxicity, dose response, cytotoxicity control, cell-based, fluorescence, Alamar Blue, secondary assay (AID 2327); assay type: functional;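 also: NIH-3T3 mouse fibroblasts cultured with fluconazole at 8 µg/mL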
[20] = Vero E6 cell cytotoxicity, dose response, cytotoxicity control for non-replicating M. tuberculosis project, secondary assay (AID 492998); assay type: functional, VeroE6; conditions: Vero C1008
[21] = cells; assay type: functional
[22] = THP-1 cell cytotoxicity, dose response, cytotoxicity control for non-replicating M. tuberculosis project (AID 489025); assay type: functional
[23] = cells; assay type: functional, cell-based

Nonstructural protein 1, sequence (Q194T2 whole entry): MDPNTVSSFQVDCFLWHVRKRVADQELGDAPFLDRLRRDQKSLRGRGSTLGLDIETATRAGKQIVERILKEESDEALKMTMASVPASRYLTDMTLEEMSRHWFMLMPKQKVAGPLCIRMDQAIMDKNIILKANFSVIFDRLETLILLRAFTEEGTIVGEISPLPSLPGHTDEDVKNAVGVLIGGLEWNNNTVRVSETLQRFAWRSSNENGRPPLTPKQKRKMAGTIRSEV
DNA dC->dU-editing enzyme APOBEC-3A, sequence (P31941 whole entry): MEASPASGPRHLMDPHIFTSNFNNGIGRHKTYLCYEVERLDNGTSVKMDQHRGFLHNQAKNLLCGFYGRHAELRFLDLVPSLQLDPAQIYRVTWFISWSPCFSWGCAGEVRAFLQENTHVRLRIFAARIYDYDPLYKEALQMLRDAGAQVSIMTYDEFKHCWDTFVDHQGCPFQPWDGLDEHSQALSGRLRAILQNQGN
DNA dC->dU-editing enzyme APOBEC-3G, sequence (Q9HC16 whole entry): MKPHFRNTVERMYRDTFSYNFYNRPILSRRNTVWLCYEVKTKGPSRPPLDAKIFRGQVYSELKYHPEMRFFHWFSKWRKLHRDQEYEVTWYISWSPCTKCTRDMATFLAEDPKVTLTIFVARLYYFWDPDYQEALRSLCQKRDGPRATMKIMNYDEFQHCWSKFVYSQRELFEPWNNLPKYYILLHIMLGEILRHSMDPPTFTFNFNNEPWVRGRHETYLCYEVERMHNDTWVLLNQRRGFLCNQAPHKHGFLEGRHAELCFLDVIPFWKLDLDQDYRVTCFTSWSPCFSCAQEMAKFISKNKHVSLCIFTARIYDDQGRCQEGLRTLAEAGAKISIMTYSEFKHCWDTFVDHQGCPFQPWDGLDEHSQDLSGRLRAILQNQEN
Cytochrome P450 2C9, sequence (P11712 whole entry): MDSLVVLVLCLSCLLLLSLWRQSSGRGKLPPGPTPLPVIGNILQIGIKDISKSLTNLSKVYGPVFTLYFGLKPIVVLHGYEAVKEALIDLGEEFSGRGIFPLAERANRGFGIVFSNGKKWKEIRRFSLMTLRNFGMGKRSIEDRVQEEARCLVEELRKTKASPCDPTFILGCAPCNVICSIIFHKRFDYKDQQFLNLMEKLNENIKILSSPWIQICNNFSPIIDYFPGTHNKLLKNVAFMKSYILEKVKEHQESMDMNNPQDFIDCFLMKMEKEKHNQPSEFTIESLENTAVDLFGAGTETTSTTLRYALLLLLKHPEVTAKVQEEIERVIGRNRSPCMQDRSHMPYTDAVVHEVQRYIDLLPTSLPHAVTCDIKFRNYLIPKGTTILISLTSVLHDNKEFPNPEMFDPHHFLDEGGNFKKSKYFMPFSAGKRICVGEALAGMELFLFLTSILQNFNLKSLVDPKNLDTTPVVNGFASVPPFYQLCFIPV

## CCSCc1nnc(SCC(=O)Nc2ccc(OC)cc2)n1C
[1]
  IC50: 4.91 µM (active)
[2]
  IC50: 3.08 µM (active)

## COc1ccc(CN2CCN(Cc3ccc(C(F)(F)F)cc3)CC2)c(OC)c1
[3]
  EC50: 2.66 µM (active)

## Cc1cc2c(cc1S(N)(=O)=O)S(=O)(=O)CCC2
[4]
  AC50: inconclusive

## COc1cc(Nc2ccc(C)cc2)c([N+](=O)[O-])nc1[N+](=O)[O-]
[5]
  EC50: > 60 µM (not active)
[6]
  AC50: 3.51 µM (active)
[7]
  EC50: 3.02 µM (active)
[8]
  IC50: > 80 µM (inactive)

## O=C(NCCN1CCOCC1)c1cc2sccc2n1Cc1ccc(Cl)cc1
[9]
  IC50: > 100 µM (active)

## CC(=O)N(C[C@@H](C)C(=O)O)c1c(I)cc(I)c(N)c1I
[4]
  AC50: inconclusive

## CCN1CCN(c2ccc(S(=O)(=O)N3CCCCC3)cc2NC(=O)/C=C/c2ccc(F)cc2)CC1
[1]
  IC50: 7.23 µM (active)
[2]
  IC50: 4.6 µM (active)

## COc1ccc(N(C(=O)c2ccccc2C)S(=O)(=O)c2cccs2)cc1
[6]
  AC50: 0.17 µM (active)
[8]
  IC50: > 80 µM (inactive)

## CCC1CCCCN1Cc1nc2c(c(=O)n(C)c(=O)n2C)n1Cc1ccccc1 (stereo not given)
[3]
  EC50: 3.76 µM (active)

## O=C(Nc1cccc2nsnc12)c1ccc2c(c1)OCO2
[10]
  AC50: 11.7 µM (active)

## CCOc1cc(/C=C2\SC(N3CCCCC3)=NC2=O)ccc1O
[10]
  AC50: 0.678 µM (active)

## CCc1noc(C)c1C(=O)NNC(=O)c1cc(OC)c(OC)c(OC)c1
[1]
  IC50: 13.9 µM (active)
[2]
  IC50: 21.3 µM (active)

## CC(=O)Nc1cccc(-c2cnc3ccccc3n2)c1
[10]
  AC50: 6.1 µM (active)

## O=C(Nc1ccc(Br)cc1Cl)c1cnccn1
[11]
  IC50: > 100 µM (inactive)
[12]
  IC50: 4.67 µM (active)

## N=C(Nc1nc(-c2ccccn2)cc2ccccc12)c1ccccn1
[13]
  AC50: < 0.26 µM (active)
[14]
  AC50: < 0.26 µM (active)
[9]
  IC50: 39.6 µM (active)
[15]
  AC50: 2.76 µM (active)

## CCCOCc1ccc(O)c2ncccc12
[5]
  EC50: 8.03 µM (active)
[16]
  EC50: 2.75 µM (active)
[17]
  AC50: 15.5 µM (active)
[18]
  AC50: 3.29 µM (active)
[19]
  EC50: 16.2 µM (inconclusive)
[7]
  EC50: 2.5 µM (active)

## CN(C)CCCN(Cc1cc2cc3c(cc2nc1O)OCO3)C(S)=NCc1ccco1
[3]
  EC50: 0.421 µM (active)

## CCOc1ccc(NC(=O)c2oc3ccccc3c2NC(=O)CC)cc1
[4]
  AC50: inconclusive

## O=C(NCCc1ccccc1)c1cc2ncc(Br)cn2n1
[1]
  IC50: > 100 µM (inactive)
[2]
  IC50: 12.8 µM (active)

## Cc1nc([N+](=O)[O-])c(Br)n1CC(=O)c1ccc(Cl)cc1
[20]
  CC50: 13 µM (active)
[21]
  IC50: 6.88 µM (active)
[22]
  CC50: 17.4 µM (active)

## CCCCN(C(=O)Cn1ncc(Cl)c(Cl)c1=O)c1c(N)n(CC(C)C)c(=O)[nH]c1=O
[12]
  IC50: 5.74 µM (active)

## Oc1ccc2ccc3[nH]cnc3c2c1
[10]
  AC50: 2.47 µM (active)

## C[C@@H](Cc1cccc(C(F)(F)F)c1)NCCOC(=O)c1ccccc1
[4]
  AC50: inconclusive

## O=c1oc2cc([N+](=O)[O-])ccc2nc1/C=C(\O)c1cccc(Br)c1
[23]
  EC50: > 350 µM (not active)

## COc1ccccc1N(C(=O)c1snc(C(N)=O)c1N)C(C(=O)NC1CCCC1)c1ccc2ncccc2c1 (stereo not given)
[3]
  EC50: 2.66 µM (active)

## CC(=O)OC1C2CCC1C([N+]1(C)CCCCC1)CC2 (stereo not given)
[1]
  IC50: 3.15 µM (active)
[2]
  IC50: 2.69 µM (active)
[12]
  IC50: 4.51 µM (active)

## CCN(CC)CC(=O)Nc1ccc(Cl)cc1C(=O)c1ccccc1
[3]
  EC50: 2.37 µM (active)

## Cc1c(N/N=C2/C(=O)NC(=O)N(Cc3ccccc3)C2=O)c(=O)n(-c2ccccc2)n1C
[9]
  IC50: 3.31 µM (active)

## O=C(N/N=C/c1cc([N+](=O)[O-])ccc1O)C1CCCCC1
[20]
  CC50: > 20 µM (active)
[21]
  IC50: 17.9 µM (active)
[22]
  CC50: 21.4 µM (active)

## O=[N+]([O-])c1ccccc1/C=C/C=N/Nc1nc(N2CCCCC2)nc(N2CCCCC2)n1
[1]
  IC50: 0.814 µM (active)
[2]
  IC50: 1.14 µM (active)

## Cc1ccc(-c2cc(C(=O)N/N=C/c3ccc(Cl)cc3)[nH]n2)o1
[12]
  IC50: 9.23 µM (active)
